Experimental data as given in the NIST ThermoML archive (doi:10.1016/j.fluid.2016.02.030).

Assay: osmotic coefficient (dimensionless); mn = molality of the nth substance listed, in mol/kg
Details: 308.15 K, Liquid, omometer

O=C[C@H](O)[C@@H](O)[C@@H](O)[C@H](O)CO [(+)-galactose] + O
Details | osmotic coefficient
m1 = 0.0558 | 0.9999
m1 = 0.1149 | 1.001
m1 = 0.1727 | 1.004
m1 = 0.2306 | 1.003
m1 = 0.2878 | 1.004
m1 = 0.3548 | 1.006
m1 = 0.4098 | 1.006
m1 = 0.4829 | 1.007
m1 = 0.5526 | 1.008
m1 = 0.6174 | 1.008
m1 = 0.6818 | 1.009
m1 = 0.7847 | 1.01
m1 = 0.8958 | 1.011
m1 = 1.009 | 1.012
m1 = 1.138 | 1.013
m1 = 1.308 | 1.016
m1 = 1.85 | 1.025
m1 = 2.61 | 1.045

O=C[C@@H](O)[C@@H](O)[C@H](O)[C@H](O)CO [D-mannose] + O
Details | osmotic coefficient
m1 = 0.1128 | 0.9933
m1 = 0.2298 | 0.989
m1 = 0.3533 | 0.984
m1 = 0.4798 | 0.9828
m1 = 0.6097 | 0.9824
m1 = 0.7659 | 0.9832
m1 = 0.9375 | 0.9836
m1 = 1.117 | 0.9842
m1 = 1.304 | 0.9852
m1 = 1.829 | 0.9903
m1 = 2.544 | 0.9978
m1 = 3.659 | 1.017

OC[C@@H](O)[C@@H](O)[C@H](O)[C@@H](O)CO [D-sorbitol] + O
Details | osmotic coefficient
m1 = 0.0278 | 0.9979
m1 = 0.0558 | 1.001
m1 = 0.111 | 0.9992
m1 = 0.1676 | 1.003
m1 = 0.2296 | 1.002
m1 = 0.2892 | 1.004
m1 = 0.3523 | 1.003
m1 = 0.4124 | 1.004
m1 = 0.4781 | 1.003
m1 = 0.5436 | 1.003
m1 = 0.6109 | 1.003
m1 = 0.6764 | 1.003
m1 = 0.7778 | 1.003
m1 = 0.8812 | 1.004
m1 = 0.9996 | 1.004
m1 = 1.112 | 1.006
m1 = 1.284 | 1.008
m1 = 1.723 | 1.013
m1 = 2.342 | 1.027
m1 = 2.956 | 1.041
m1 = 3.645 | 1.057

O=C[C@H](O)[C@@H](O)[C@H](O)[C@H](O)CO [D-glucose] + O
Details | osmotic coefficient
m1 = 0.0557 | 1.002
m1 = 0.1126 | 1.005
m1 = 0.1685 | 1.004
m1 = 0.2236 | 1.004
m1 = 0.2913 | 1.004
m1 = 0.3539 | 1.005
m1 = 0.4081 | 1.006
m1 = 0.4775 | 1.006
m1 = 0.5382 | 1.006
m1 = 0.5708 | 1.008
m1 = 0.6209 | 1.008
m1 = 0.6815 | 1.008
m1 = 0.7347 | 1.009
m1 = 0.7963 | 1.009
m1 = 0.9085 | 1.01
m1 = 1.019 | 1.012
m1 = 1.109 | 1.014
m1 = 1.215 | 1.015
m1 = 1.323 | 1.017
m1 = 1.569 | 1.022
m1 = 1.841 | 1.03
m1 = 2.386 | 1.044
m1 = 2.945 | 1.061
m1 = 3.626 | 1.078
m1 = 4.847 | 1.11

OC[C@H]1O[C@H](OC[C@H]2O[C@H](O[C@]3(CO)O[C@H](CO)[C@@H](O)[C@@H]3O)[C@H](O)[C@@H](O)[C@@H]2O)[C@H](O)[C@@H](O)[C@H]1O [D-raffinose] + O
Details | osmotic coefficient
m1 = 0.0343 | 1.002
m1 = 0.1059 | 1.025
m1 = 0.1837 | 1.04
m1 = 0.2667 | 1.062
m1 = 0.3581 | 1.083
m1 = 0.4515 | 1.117
m1 = 0.4902 | 1.134
m1 = 0.6205 | 1.168

O=C[C@H](O)[C@@H](O)[C@H](O)CO [D-xylose] + O
Details | osmotic coefficient
m1 = 5.333 | 1.007
m1 = 5.362 | 1.002
m1 = 5.4 | 0.9966
m1 = 5.435 | 0.9919
m1 = 5.468 | 0.9881
m1 = 5.502 | 0.987
m1 = 5.516 | 0.9868
m1 = 5.53 | 0.9859
m1 = 5.542 | 0.9858
m1 = 5.551 | 0.9857
m1 = 5.559 | 0.9852
m1 = 5.566 | 0.9853
m1 = 5.574 | 0.985
m1 = 5.582 | 0.9853
m1 = 5.59 | 0.9852
m1 = 5.598 | 0.9866
m1 = 5.604 | 0.9869
m1 = 5.611 | 0.9874
m1 = 5.619 | 0.9894
m1 = 5.625 | 0.997

OC[C@@H](O)[C@@H](O[C@H]1O[C@H](CO)[C@@H](O)[C@H](O)[C@H]1O)[C@H](O)[C@@H](O)CO [4-O-α-D-glucopyranosyl-D-glucitol] + O
Details | osmotic coefficient
m1 = 0.0292 | 0.9903
m1 = 0.1187 | 0.9976
m1 = 0.219 | 1.012
m1 = 0.3226 | 1.019
m1 = 0.4282 | 1.028
m1 = 0.5127 | 1.031
m1 = 0.5925 | 1.032
m1 = 0.774 | 1.049
m1 = 0.9158 | 1.06
m1 = 1.054 | 1.067
m1 = 1.261 | 1.081
m1 = 1.918 | 1.151
m1 = 2.645 | 1.217
m1 = 3.591 | 1.272

OC[C@H]1O[C@@](CO)(O[C@H]2O[C@H](CO)[C@@H](O)[C@H](O)[C@H]2O)[C@@H](O)[C@@H]1O [D-sucrose] + O
Details | osmotic coefficient
m1 = 0.0296 | 0.9997
m1 = 0.0581 | 1.001
m1 = 0.0904 | 1.008
m1 = 0.1209 | 1.013
m1 = 0.1534 | 1.017
m1 = 0.1988 | 1.019
m1 = 0.2535 | 1.025
m1 = 0.3157 | 1.028
m1 = 0.3938 | 1.032
m1 = 0.477 | 1.035
m1 = 0.5567 | 1.039
m1 = 0.5822 | 1.04
m1 = 0.648 | 1.042
m1 = 0.7265 | 1.047
m1 = 0.8492 | 1.053
m1 = 0.971 | 1.058
m1 = 1.087 | 1.065
m1 = 1.186 | 1.067
m1 = 1.275 | 1.074
m1 = 1.996 | 1.149
m1 = 2.679 | 1.202
m1 = 3.412 | 1.248
m1 = 3.927 | 1.276

O=C[C@H](O)[C@@H](O)[C@H](O[C@@H]1O[C@H](CO)[C@H](O)[C@H](O)[C@H]1O)[C@H](O)CO [4-O-β-D-galactopyranosyl-D-glucose] + O
Details | osmotic coefficient
m1 = 0.014 | 0.9946
m1 = 0.0578 | 1.011
m1 = 0.1025 | 1.022
m1 = 0.1286 | 1.03
m1 = 0.1795 | 1.046
m1 = 0.2313 | 1.058
m1 = 0.2909 | 1.065
m1 = 0.3217 | 1.067

O=C[C@H](O)[C@@H](O)[C@@H](O)CO [L-arabinose] + O
Details | osmotic coefficient
m1 = 0.0332 | 0.9993
m1 = 0.0672 | 0.9973
m1 = 0.1346 | 0.9965
m1 = 0.2071 | 0.995
m1 = 0.2766 | 0.9956
m1 = 0.3435 | 0.9951
m1 = 0.4151 | 0.9944
m1 = 0.4952 | 0.9947
m1 = 0.5785 | 0.9949
m1 = 0.6498 | 0.9944
m1 = 0.8204 | 0.9948
m1 = 0.9055 | 0.9945
m1 = 1.041 | 0.9945
m1 = 1.177 | 0.9944
m1 = 1.313 | 0.9942
m1 = 1.659 | 0.995
m1 = 2.402 | 1.002
m1 = 3.272 | 1.016

OC[C@@H](O)[C@H](O)[C@@H](O)CO [xylitol] + O
Details | osmotic coefficient
m1 = 0.0663 | 1.002
m1 = 0.1332 | 1.002
m1 = 0.2029 | 1.002
m1 = 0.2718 | 1.002
m1 = 0.3466 | 1.003
m1 = 0.4199 | 1.004
m1 = 0.495 | 1.005
m1 = 0.5643 | 1.005
m1 = 0.6343 | 1.005
m1 = 0.7296 | 1.006
m1 = 0.792 | 1.007
m1 = 0.8908 | 1.008
m1 = 0.9999 | 1.011
m1 = 1.143 | 1.012
m1 = 1.297 | 1.015
m1 = 1.474 | 1.017
m1 = 2.027 | 1.026
m1 = 2.646 | 1.036
m1 = 3.289 | 1.042
m1 = 4.413 | 1.048

O=C(CO)[C@@H](O)[C@H](O)[C@H](O)CO [D-fructose] + O
Details | osmotic coefficient
m1 = 0.0559 | 0.9986
m1 = 0.1125 | 0.9958
m1 = 0.1714 | 0.9944
m1 = 0.2296 | 0.9949
m1 = 0.2923 | 0.9947
m1 = 0.3466 | 0.9945
m1 = 0.4185 | 0.9946
m1 = 0.4792 | 0.9949
m1 = 0.5468 | 0.9947
m1 = 0.614 | 0.9951
m1 = 0.6925 | 0.9951
m1 = 0.7872 | 0.9955
m1 = 0.9018 | 0.995
m1 = 1.022 | 0.9947
m1 = 1.139 | 0.9949
m1 = 1.266 | 0.9949
m1 = 1.741 | 0.9972
m1 = 2.401 | 1.006
m1 = 2.95 | 1.014
m1 = 3.625 | 1.027
m1 = 5.424 | 1.069

O=C[C@H](O)[C@H](O)[C@H](O)CO [D-ribose] + O
Details | osmotic coefficient
m1 = 0.0338 | 0.9992
m1 = 0.0672 | 0.988
m1 = 0.1353 | 0.9826
m1 = 0.2041 | 0.9786
m1 = 0.2789 | 0.9769
m1 = 0.3505 | 0.9753
m1 = 0.4242 | 0.9745
m1 = 0.499 | 0.9743
m1 = 0.5801 | 0.9736
m1 = 0.6538 | 0.9734
m1 = 0.7165 | 0.973
m1 = 0.7426 | 0.9732
m1 = 0.8289 | 0.973
m1 = 0.9054 | 0.9732
m1 = 1.038 | 0.9735
m1 = 1.183 | 0.9735
m1 = 1.453 | 0.9745
m1 = 1.988 | 0.9774
m1 = 2.594 | 0.9857
m1 = 3.266 | 0.9944
